# Laboratory results as given in patent publication US20050070510A1, “Substituted tetracycline compounds as synergistic antifungal agents” (Paratek Pharmaceuticals, Inc., priority 2001, published 2005).
# System: COS-1 cells
# Experiment: In vitro mammalian cytotoxicity assay (Resazurin)
row,SMILES,In Vitro Cytotoxicity
1,CN(C)[C@@H]1C(O)=C(C(N)=O)C(=O)[C@@]2(C#N)C(O)=C3C(=O)c4c(O)c(C(C)(C)C)cc(-c5cnc6ccccc6c5)c4C[C@@]3(N)C[C@@]12N [OV],* (toxicities greater than >25 μg/ml are represented by *)
2,CN(C)Cc1ccc(-c2cc(N(C)C)c3c(c2O)C(=O)C2=C(O)[C@]4(C#N)C(=O)C(C(N)=O)=C(O)[C@@H](N(C)C)[C@]4(N)C[C@]2(N)C3)cc1 [IJ],* (toxicities greater than >25 μg/ml are represented by *)
3,CN(C)[C@@H]1C(O)=C(C(N)=O)C(=O)[C@@]2(C#N)C(O)=C3C(=O)c4c(O)ccc(-c5cccnc5)c4C[C@@]3(N)C[C@@]12N [UL],** (toxicities less than 25 μg/mL are represented by **)
4,CN(C)c1cc(C#CC(=O)O)c(O)c2c1C[C@@]1(N)C[C@@]3(N)[C@H](N(C)C)C(O)=C(C(N)=O)C(=O)[C@@]3(C#N)C(O)=C1C2=O [HZ],* (toxicities greater than >25 μg/ml are represented by *)
5,CC(=O)Nc1ccc(C#Cc2ccc(O)c3c2C[C@@]2(N)C[C@@]4(N)[C@H](N(C)C)C(O)=C(C(N)=O)C(=O)[C@@]4(C#N)C(O)=C2C3=O)cc1 [IU],* (toxicities greater than >25 μg/ml are represented by *)
6,COc1ccc(CNC2CCCCC2)cc1-c1ccc(O)c2c1C[C@@]1(N)C[C@@]3(N)[C@H](N(C)C)C(O)=C(C(N)=O)C(=O)[C@@]3(C#N)C(O)=C1C2=O [LQ],* (toxicities greater than >25 μg/ml are represented by *)
7,CN(C)c1cc(-c2cccc(C(N)=O)c2)c(O)c2c1C[C@@]1(N)C[C@@]3(N)[C@H](N(C)C)C(O)=C(C(N)=O)C(=O)[C@@]3(C#N)C(O)=C1C2=O [EU],** (toxicities less than 25 μg/mL are represented by **)
8,CCc1cc(CN)c(O)c2c1C[C@@]1(N)C[C@@]3(N)[C@H](N(C)C)C(O)=C(C(N)=O)C(=O)[C@@]3(C#N)C(O)=C1C2=O [IZ],* (toxicities greater than >25 μg/ml are represented by *)
9,CN(C)[C@@H]1C(O)=C(C(N)=O)C(=O)[C@@]2(C#N)C(O)=C3C(=O)c4c(cc(Br)c(N)c4O)[C@H](N)[C@@]3(N)[C@H](O)[C@@]12N [HY],* (toxicities greater than >25 μg/ml are represented by *)
10,CN(C)[C@@H]1C(O)=C(C(N)=O)C(=O)[C@@]2(C#N)C(O)=C3C(=O)c4c(ccc(NC(=O)Nc5cccc6ccccc56)c4O)[C@H](N)[C@@]3(N)[C@H](OC(=O)Nc3ccccc3)[C@@]12N [BJ],** (toxicities less than 25 μg/mL are represented by **)
11,CC(=O)c1ccc(NC(=O)NCc2cc(N(C)C)c3c(c2O)C(=O)C2=C(O)[C@]4(C#N)C(=O)C(C(N)=O)=C(O)[C@@H](N(C)C)[C@]4(N)C[C@]2(N)C3)cc1 [NA],* (toxicities greater than >25 μg/ml are represented by *)
12,COC(=O)C1C(=O)[C@@]2(O)C(O)=C3C(=O)c4c(O)c(N(C)Cc5cc[nH]n5)cc(N(C)C)c4C[C@@]3(N)C[C@@]2(N)[C@H](N(C)C)C1OC (stereo partly shown) [VG],** (toxicities less than 25 μg/mL are represented by **)
13,CN(C)[C@@H]1C(O)=C(C(N)=O)C(=O)[C@@]2(C#N)C(O)=C3C(=O)c4c(O)ccc(-c5ccccc5)c4C[C@@]3(N)C[C@@]12N [CX],* (toxicities greater than >25 μg/ml are represented by *)
14,CN(C)c1cc(NC(=O)Nc2cccc3ccccc23)c(O)c2c1C[C@@]1(N)C[C@@]3(N)[C@H](N(C)C)C(O)=C(C(N)=O)C(=O)[C@@]3(C#N)C(O)=C1C2=O [CF],** (toxicities less than 25 μg/mL are represented by **)
15,CN(C)c1cc(NC(=O)Nc2ccc([N+](=O)O)cc2)c(O)c2c1C[C@@]1(N)C[C@@]3(N)[C@H](N(C)C)C(O)=C(C(N)=O)C(=O)[C@@]3(C#N)C(O)=C1C2=O [IC],* (toxicities greater than >25 μg/ml are represented by *)
16,CN(C)[C@@H]1C(O)=C(C(N)=O)C(=O)[C@@]2(C#N)C(O)=C3C(=O)c4c(ccc(-c5ccc(C(=O)F)c6ccccc56)c4O)[C@H](N)[C@@]3(N)[C@H](O)[C@@]12N [PO],** (toxicities less than 25 μg/mL are represented by **)
